In US20200038412A1, “METHODS OF TREATING ALZHEIMER'S DISEASE USING AMINOSTEROL COMPOSITIONS” (Enterin, Inc., priority 2018, published 2020):
“Also recorded” adds a separate entry of the source.

Tests used:
αS = αS (Homo sapiens, UniProt P37840); details: in vitro (Perni et al. 2017); cited from earlier work
[1] = system: patients with PD and constipation; experiment: Phase 2 trial Stage 2: adverse events; type: in vivo, human
Method: In Stage 2, 34 patients were evaluated.

Solubility in water = type: physicochemical
[2] = system: patients with PD and constipation; experiment: Circadian rhythm of wrist skin temperature; type: in vivo, human; details: for circadian rhythm of skin temperature / markers of healthy circadian function: oral, 12 evaluable patients
Method: Assessments were made at baseline and at the end of the fixed dose and washout periods. Circadian system status was evaluated by continuously monitoring wrist skin temperature (Thermochron iButton DS1921H; Maxim, Dallas) following published procedures (Sarabia et al. 2008).
Circadian rhythm of skin temperature was evaluable in 12 patients (i.e., those who had recordings that extended from baseline through washout). Circadian system functionality was evaluated by continuously monitoring wrist skin temperature using a temperature sensor (Thermochron iButton DS1921H; Maxim, Dallas, Tex.) (Sarabia et al. 2008). A nonparametric analysis was performed for each participant to characterize DST as previously described (Sarabia et al. 2008; Ortiz-Tudela et al. 2010).
Briefly, this analysis includes the following parameters: (i) the inter-daily stability (the constancy of 24-hour rhythmic pattern over days, IS); (ii) intra-daily variability (rhythm fragmentation, IV); (iii) average of 10-minute intervals for the 10 hours with the minimum temperature (L10); (iv) average of 10-minute intervals for the 5 hours with the maximum temperature (M5) and the relative amplitude (RA), which was determined by the difference between M5 and L10, divided by the sum of both. Finally, the Circadian Function Index (CFI) was calculated by integrating IS, IV, and RA. Consequently, CFI is a global measure that oscillates between 0 for the absence of circadian rhythmicity and 1 for a robust circadian rhythm (Ortiz-Tudela et al. 2010).

[3] = Preclinical oral dosing in rats; type: in vivo

CC(C)[C@@H](CC[C@@H](C)[C@H]1CC[C@H]2[C@@H]3[C@H](O)C[C@H]4C[C@@H](NCCCNCCCCN)CC[C@]4(C)[C@H]3CC[C@]12C)OS(=O)(=O)O (single isomer, unassigned) [squalamine (ENT-01), squalamine]
formation of aggregates of αS (αS): inhibit the formation of aggregates of αS
AEs confined to the GI tract ([1]; Stage 2): 63%
Diarrhea (common adverse events by dose) ([1]; Stage 2, 75 mg): 7
Dizziness, lightheadedness included (common adverse events by dose) ([1]; Stage 2, 75 mg): 8
Nausea (common adverse events by dose) ([1]; Stage 2, 75 mg): 3
Diarrhea (common adverse events by dose) ([1]; Stage 2, 100 mg): 10
Dizziness, lightheadedness included (common adverse events by dose) ([1]; Stage 2, 100 mg): 7
Nausea (common adverse events by dose) ([1]; Stage 2, 100 mg): 12
Diarrhea (common adverse events by dose) ([1]; Stage 2, 125 mg): 3
Dizziness, lightheadedness included (common adverse events by dose) ([1]; Stage 2, 125 mg): 8
Nausea (common adverse events by dose) ([1]; Stage 2, 125 mg): 4
Diarrhea (common adverse events by dose) ([1]; Stage 2, 150 mg): 2
Dizziness, lightheadedness included (common adverse events by dose) ([1]; Stage 2, 150 mg): 2
Nausea (common adverse events by dose) ([1]; Stage 2, 150 mg): 11
Diarrhea (common adverse events by dose) ([1]; Stage 2, 175 mg): 1
Dizziness, lightheadedness included (common adverse events by dose) ([1]; Stage 2, 175 mg): 0
Nausea (common adverse events by dose) ([1]; Stage 2, 175 mg): 12
Diarrhea (common adverse events by dose) ([1]; Stage 2, 200 mg): 3
Nausea (common adverse events by dose) ([1]; Stage 2, 200 mg): 6
Diarrhea (common adverse events by dose) ([1]; Stage 2, 225 mg): 3
Nausea (common adverse events by dose) ([1]; Stage 2, 225 mg): 1
Diarrhea (common adverse events by dose) ([1]; Stage 2, 250 mg): 2
patients with diarrhea ([1]; Stage 2, 15/34 patients): 44%
patients with nausea ([1]; Stage 2, 18/34 patients): 52.9%
Abdominal pain, Mild ([1]; Stage 2, 34 dosed): 4 (11.7) n, %
Abdominal pain, Moderate ([1]; Stage 2, 34 dosed): 2 (5.8) n, %
Blood in urine, Mild ([1]; Stage 2, 34 dosed): 0 n, %
Blood in urine, Moderate ([1]; Stage 2, 34 dosed): 0 n, %
Diarrhea, Mild ([1]; Stage 2, 34 dosed): 12 (35) n, %
Diarrhea, Moderate ([1]; Stage 2, 34 dosed): 2 (5.8) n, %
Diarrhea, Severe ([1]; Stage 2, 34 dosed): 1 (2.9) n, %
Difficulty falling asleep, Mild ([1]; Stage 2, 34 dosed): 1 (3) n, %
Difficulty falling asleep, Moderate ([1]; Stage 2, 34 dosed): 0 n, %
Dizziness, Mild ([1]; Stage 2, 34 dosed): 7 (20.5) n, %
Dizziness, Moderate ([1]; Stage 2, 34 dosed): 1 (2.9) n, %
Eye infection, Mild ([1]; Stage 2, 34 dosed): 1 (3) n, %
Eye infection, Moderate ([1]; Stage 2, 34 dosed): 0 n, %
Flatulence, Mild ([1]; Stage 2, 34 dosed): 1 (3) n, %
Flatulence, Moderate ([1]; Stage 2, 34 dosed): 0 n, %
Headache, Mild ([1]; Stage 2, 34 dosed): 3 (8.8) n, %
Headache, Moderate ([1]; Stage 2, 34 dosed): 0 n, %
Increased urinary frequency, Mild ([1]; Stage 2, 34 dosed): 2 (5.8) n, %
Increased urinary frequency, Moderate ([1]; Stage 2, 34 dosed): 0 n, %
Loss of appetite, Mild ([1]; Stage 2, 34 dosed): 0 n, %
Loss of appetite, Moderate ([1]; Stage 2, 34 dosed): 0 n, %
Nausea, Mild ([1]; Stage 2, 34 dosed): 18 (52) n, %
Nausea, Moderate ([1]; Stage 2, 34 dosed): 1 (2.9) n, %
Skin lesions-rash, Mild ([1]; Stage 2, 34 dosed): 3 (8.8) n, %
Skin lesions-rash, Moderate ([1]; Stage 2, 34 dosed): 0 n, %
Urinary retention, Mild ([1]; Stage 2, 34 dosed): 1 (3) n, %
Urinary retention, Moderate ([1]; Stage 2, 34 dosed): 0 n, %
Urinary tract infection, Mild ([1]; Stage 2, 34 dosed): 1 (3) n, %
Urinary tract infection, Moderate ([1]; Stage 2, 34 dosed): 2 (5.8) n, %
Vomiting, Mild ([1]; Stage 2, 34 dosed): 2 (5.8) n, %
Vomiting, Moderate ([1]; Stage 2, 34 dosed): 0 n, %
Worsening acid reflux, Mild ([1]; Stage 2, 34 dosed): 4 (11.7) n, %
Worsening acid reflux, Moderate ([1]; Stage 2, 34 dosed): 0 n, %
Worsening hemorrhoid, Mild ([1]; Stage 2, 34 dosed): 1 (3) n, %
Worsening hemorrhoid, Moderate ([1]; Stage 2, 34 dosed): 0 n, %
patients terminated prior to completion because of recurrent dizziness ([1]; Stage 2, two patients): 5.8%
Lower GI bleed, Severe ([1]; Stage 2, colonic diverticulosis, polyp, patient on aspirin, Plavix and naproxen, unrelated to ENT-01): 1 (2.5) n, %
solubility in water (Solubility in water; neutral pH): weakly soluble
dissolution in water (Solubility in water; pH<3.5 (the pH of gastric fluid)): readily dissolves
relative amplitude (RA) ([2]; fixed dose vs baseline, p=0.001): increasing
circadian function index (CFI) ([2]; fixed dose vs baseline, p=0.016): increasing
rhythm stability (inter-daily stability, IS) ([2]; fixed dose vs baseline, p=0.026): increasing
rhythm fragmentation (intra-daily variability, IV) ([2]; fixed dose vs baseline, p=0.031): reducing
circadian rhythm of skin temperature / markers of healthy circadian function ([2]; fixed dose vs baseline): significant positive impact on the circadian rhythm of skin temperature; also recorded: improved all markers of healthy circadian function
circadian rhythm of skin temperature / markers of healthy circadian function ([2]; fixed dose vs baseline, listed as aminosterol): improved all markers of healthy circadian function
circadian parameters during wash-out period ([2]; wash-out vs baseline (IS, CFI), 12 patients): improvement persisted for several of these circadian parameters
absorption from the intestine ([3]; rat, portal blood concentrations following oral dosing of radioactive ENT-01): low
bioavailability ([3]; rats): limited bioavailability
tolerability ([3]; rats): well tolerated
